Reference: PMC7203153, “Rational identification and characterisation of peptide ligands for targeting polysialic acid” (Scientific Reports, 2020)
pKd: −log10 of the molar value. Marks after values point to notes of the source that are not given here. Where a SMILES comes first, the peptide text is derived from it.

assay: Peptide microarray affinity screening against α-2,8-PSA (colominic acid); assay type: binding, Escherichia coli; conditions: 10 μM CA, pH 7.4
Protocol: (§1) Peptide library synthesis, microarray preparation, and microarray screening were performed as described previously[25] with the following specifications. Siglec-related sequences were N-terminally acetylated to match the charge of the corresponding protein fragment. All peptides were printed in triplicate (60 nL spots), and each initial affinity screening was carried out at least three times. Screening was conducted with 10 μM colominic acid (CA; 5 mL per microarray), the Escherichia coli homolog of α-2,8-PSA identical in structure to human-derived PSA[67], and with antibody-based chemiluminescent detection of CA. For selectivity screening, microarrays were challenged with 10 μM CA with 0, 0.1, 1, and 10 μM α-2,8/9-PSA in separate conditions (5 mL total volume each), where molar concentrations were based on molecular weight estimation of synthesized 2,8/9-PSA (details on α-2,8/9-PSA production, purification, and analysis are provided in Supplementary Information). Selectivity screening with monomeric sialic acid was conducted with mass and molar equivalents of N-acetylneuraminic acid (Rose Scientific, Ltd.) along with 10 μM CA (5 mL total volume each). The mass equivalent amount of sialic acid (specifically, 970 μM sialic acid for a given volume of 10 μM CA) was calculated for CA of an average degree of polymerization of 100. For study of pH-dependent binding, affinity screening with CA was performed using PBS buffers of pH 6.0, 7.0, 7.4, and 8.0 (10 mM phosphate, 100 mM NaCl). The impact of NaCl on peptide binding was assessed at pH 7.4 with 0, 100, and 200 mM NaCl.
Microarray image and data analysis was performed as described. […] Of the triplicate experiments used to generate mean microarray affinity intensities in standard conditions (within each of which 762 peptides were represented in triplicate), 225 out of 762 values in one of these three experiments were derived from raw data previously reported, but were alternatively analysed as stated. Peptide isoelectric points were calculated with the EMBOSS iep program.

Row | Molecule | change in microarray binding with 200 mM vs 100 mM NaCl
1 | CC(=O)N[C@@H](CCCCN)C(=O)N[C@@H](CC(=O)O)C(=O)N1CCC[C@H]1C(=O)N[C@@H](CO)C(=O)N[C@@H](Cc1ccc(O)cc1)C(=O)N[C@@H](CO)C(=O)N[C@@H](CC(C)C)C(=O)N[C@@H](CCC(N)=O)C(=O)N[C@H](C(=O)N[C@@H](CCC(N)=O)C(=O)N[C@@H](CCCNC(=N)N)C(=O)N[C@@H](CCC(N)=O)C(=O)N[C@H](C(=O)N1CCC[C@H]1C(=O)N[C@H](C(N)=O)C(C)C)C(C)C)C(C)C [I-P2] (Ac-KDPSYSLQVQRQVPV-NH2) | did not display any change in binding
2 | CC(=O)N[C@@H](CCC(=O)O)C(=O)N[C@@H](Cc1c[nH]cn1)C(=O)NCC(=O)NCC(=O)NCC(=O)N[C@@H](CC(C)C)C(=O)NCC(=O)N[C@@H](CC(C)C)C(=O)NCC(=O)N[C@@H](C)C(=O)N[C@@H](C)C(=O)N[C@@H](CC(C)C)C(=O)NCC(=O)N[C@@H](C)C(=O)NCC(N)=O [I-P264] (Ac-EHGGGLGLGAALGAG-NH2) | did not display any change in binding

assay: Competitive microarray selectivity screening with α-2,8/9-PSA; assay type: binding, Escherichia coli; conditions: 10% competing α-2,8/9-PSA
Protocol: Competitive microarray screening with α-2,8/9-PSA was conducted in order to assess selective binding of peptides to α-2,8-PSA. The definition of percent selectivity at 10% competing glycan was applied to enable selectivity comparisons amongst a larger set of peptides[25] […] However, the use of an isomeric polymer is a more stringent assessment of selectivity; here, selective binding is guided by three-dimensional conformation and not additionally by differences in functional groups.
as §1, with “NaCl. […]” for “NaCl.”

Row | Molecule | selectivity mark in Table 1
3 | CC(=O)N[C@@H](CC(N)=O)C(=O)N[C@@H](CCCNC(=N)N)C(=O)N[C@H](C(=O)N[C@H](C(=O)N[C@@H](CC(C)C)C(=O)N[C@@H](CCCNC(=N)N)C(=O)N[C@@H](CC(N)=O)C(=O)N[C@@H](CC(C)C)C(=O)NCC(=O)N[C@@H](CC(N)=O)C(=O)NCC(=O)N[C@H](C(=O)N[C@@H](CO)C(=O)N[C@@H](CC(C)C)C(=O)N1CCC[C@H]1C(N)=O)[C@@H](C)O)C(C)C)[C@@H](C)O [II-P336] (Ac-NRTVLRNLGNGTSLP-NH2) | II-P336* (Peptides with selectivity >80%)
4 | AISSPLLKNPFRGGGS [II-P214, phage display screening peptide with W8K mutation] | II-P214* (Peptides with selectivity >80%)

same assay, conditions: binding to 10 μM α-2,8-PSA (CA) with 10% competing α-2,8/9-PSA; ± SD of triplicate intra-assay measurements; SD

Row | Molecule | % selectivity
5 | AALSPRRTRPSTSHF [I-P85] | 59 ± 5%
6 | AISSPLLRNPFRGGGS [II-P213, phage display screening peptide with W8R mutation] | 66 ± 9%
7 | FRVKICRKEARKRAA [I-P278] | 43 ± 8%
8 | FSRKGVSAQRTVRLR [I-P103] | 55 ± 11%
9 | GGKGGGKGGGKGGGK [I-P380, de novo peptide composed of lysine and glycine residues] | 56 ± 7%
10 | GRTSAKTGAPVATNN [I-P344, Siglec-11-derived peptide with P5A mutation] | 85 ± 8%
11 | GRTSPKAGAPVATNN [I-P346, Siglec-11-derived peptide with T7A mutation] | 91 ± 15%
12 | GSGSGTDFTLKISRV [II-P35, peptide designed from mAb735] | 53 ± 6%
13 | KGGGKGGGKGGGKGG [I-P379, de novo peptide composed of lysine and glycine residues] | 61 ± 7%
14 | KGKGKGKGKGKGKGK [I-P378, de novo designed peptide with alternating Lys and Gly residues] | 60 ± 9%
15 | KIHTGQPLRGPGFGL [I-P323] | 86 ± 8%
16 | LKVTALTKKPDVYIP [I-P62] | 67 ± 17%
17 | LSNAFFLKVTALTKK [I-P59] | 52 ± 10%
18 | LSPRRTRPSTSHFSV [I-P86] | 62 ± 10%
19 | NAFFLKVTALTKKPD [I-P60] | 70 ± 18%
20 | PGSGNTKYNEKFKGK [II-P77, peptide designed from mAb735] | 49 ± 5%
21 | QELHYASLSFQGLRL [I-P307] | 80 ± 14%
22 | RKGVSAQRTVRLRVA [I-P104] | 45 ± 4%
23 | TLPAILQASGTRGGGS [II-P145, phage display screening peptide with S8A mutation] | 81 ± 16%
24 | VDFSRKGVSAQRTVR [I-P102] | 59 ± 10%
25 | VKICRKEARKRAAAE [I-P279] | 46 ± 12%
26 | VPYTFGGGTRLEIKG [II-P50, peptide designed from mAb735] | 71 ± 9%
27 | WFKGKTSPKTGAPVA [I-P333, Siglec-11-derived peptide with R5K mutation] | 59 ± 2%
28 | WFKGRTSPKTGAPVA [I-P330, Siglec-11-derived peptide] | 35 ± 1%
29 | WGPRTLGLELRGVRA [I-P143] | 37 ± 1%
30 | YSEIKIHTGQPLRGP [I-P321] | 85 ± 18%
31 | YWFKGRTSPKTGAPV [I-P23] | 43 ± 3%

assay: Fluorescence anisotropy (FA) assay of peptide–PSA binding; design: species or system Escherichia coli; conditions: FA titration; N-acetylated, C-terminally TAMRA-labelled peptide 20 nM; CA 0–1500 μM; PBS pH 7.4 (10 mM phosphate, 100 mM NaCl); 3 h, ~20 °C; four-parameter logistic fit; at least two independent experiments, at least triplicate; * = accuracy likely poor (SE > KD)
Protocol: Peptides (Table 2) were synthesized at >95% purity (confirmed with HPLC) by Biomatik (see Supplementary Information). All peptides were N-terminally acetylated and C-terminally labelled with tetramethylrhodamine dye (TAMRA). TAMRA was chosen as a label due to its pH insensitivity compared to FAM (fluorescein) and related dyes commonly used for fluorescence assays. Experiments were conducted in black 384-well plates with non-binding surface (NBS, Corning, Inc.) to minimize background binding and enhance signal-to-noise ratio in the fluorescence-based binding assay. Titrations were carried out through addition of TAMRA-labelled peptide (8 μL, final concentration 20 nM) to CA (72 μL, final concentrations 0–1500 μM) in PBS, pH 7.4 (10 mM phosphate, 100 mM NaCl), and solutions were incubated with agitation to equilibrium at room temperature (3 h, ~20 °C). Parallel and perpendicular intensities were subsequently measured at 530 nm excitation (band width 5 nm) and 580 nm emission (band width 20 nm) in fluorescence polarization mode with a Tecan Infinite M1000 Pro plate reader. Total fluorescence intensities were also measured as a control for fluorophore properties with target binding; fluorescence intensities of free peptide were determined to be approximately equivalent to intensities with peptide–CA mixtures. At higher concentrations of free CA (control with no peptide addition), attenuation of detected light differed in parallel and perpendicular planes, so respective intensities were subtracted from peptide–CA intensities prior to anisotropy calculations. […] Unique samples were screened in at least triplicate within each titration experiment, and each peptide titration was carried out at least twice. In experimental repeats, peptide locations on plates were varied to prevent location-specific effects, if any, and different combinations of peptides were assessed at once. Anisotropies were calculated from corrected parallel and perpendicular intensities, and values were fit to the four-parameter logistic binding model[70] in MATLAB. Prior to curve fitting, anisotropy values for each peptide were transformed through subtraction of minimum values to enhance comparison between peptides. The resulting translations in binding curves were identical, within error, to change in anisotropy curves obtained through subtraction of anisotropy of free labelled peptide. Bmax and KD values obtained were used in the calculation of Bmax/KD ratios for comparison to microarray intensity values, and the Pearson correlation coefficient (r) was determined.

Row | Molecule | pKd
32 | CC(=O)N[C@@H](CCCCN)C(=O)N[C@@H](CC(=O)O)C(=O)N1CCC[C@H]1C(=O)N[C@@H](CO)C(=O)N[C@@H](Cc1ccc(O)cc1)C(=O)N[C@@H](CO)C(=O)N[C@@H](CC(C)C)C(=O)N[C@@H](CCC(N)=O)C(=O)N[C@H](C(=O)N[C@@H](CCC(N)=O)C(=O)N[C@@H](CCCNC(=N)N)C(=O)N[C@@H](CCC(N)=O)C(=O)N[C@H](C(=O)N1CCC[C@H]1C(=O)N[C@H](C(N)=O)C(C)C)C(C)C)C(C)C [I-P2] (Ac-KDPSYSLQVQRQVPV-NH2) | 3.39
33 | CC[C@H](C)[C@H](NC(C)=O)C(=O)N[C@@H](Cc1ccc(O)cc1)C(=O)N1CCC[C@H]1C(=O)NCC(=O)N[C@@H](CO)C(=O)NCC(=O)N[C@@H](CC(N)=O)C(=O)N[C@H](C(=O)N[C@@H](CCCCN)C(=O)N[C@@H](Cc1ccc(O)cc1)C(=O)N[C@@H](CC(N)=O)C(=O)N[C@@H](CCC(=O)O)C(=O)N[C@@H](CCCCN)C(=O)N[C@@H](Cc1ccccc1)C(=O)N[C@@H](CCCCN)C(N)=O)[C@@H](C)O [II-P76] (Ac-IYPGSGNTKYNEKFK-NH2) | 2.89
34 | CC(=O)N[C@@H](CC(N)=O)C(=O)N[C@@H](CCCNC(=N)N)C(=O)N[C@H](C(=O)N[C@H](C(=O)N[C@@H](CC(C)C)C(=O)N[C@@H](CCCNC(=N)N)C(=O)N[C@@H](CC(N)=O)C(=O)N[C@@H](CC(C)C)C(=O)NCC(=O)N[C@@H](CC(N)=O)C(=O)NCC(=O)N[C@H](C(=O)N[C@@H](CO)C(=O)N[C@@H](CC(C)C)C(=O)N1CCC[C@H]1C(N)=O)[C@@H](C)O)C(C)C)[C@@H](C)O [II-P336] (Ac-NRTVLRNLGNGTSLP-NH2) | 3.24

same assay, conditions: PSA concentration 1500 µM; ± inter-assay SD, at least two independent experiments; SD

Row | Molecule | Non-adjusted anisotropy
35 | CC(=O)N[C@@H](CCCCN)C(=O)N[C@@H](CC(=O)O)C(=O)N1CCC[C@H]1C(=O)N[C@@H](CO)C(=O)N[C@@H](Cc1ccc(O)cc1)C(=O)N[C@@H](CO)C(=O)N[C@@H](CC(C)C)C(=O)N[C@@H](CCC(N)=O)C(=O)N[C@H](C(=O)N[C@@H](CCC(N)=O)C(=O)N[C@@H](CCCNC(=N)N)C(=O)N[C@@H](CCC(N)=O)C(=O)N[C@H](C(=O)N1CCC[C@H]1C(=O)N[C@H](C(N)=O)C(C)C)C(C)C)C(C)C [I-P2] (Ac-KDPSYSLQVQRQVPV-NH2) | 35.8 ± 11.5

same assay, conditions: from FA curve fits, among the peptides characterised with FA

Row | Molecule | Bmax/KD ratio (binding potential)
36 | CC(=O)N[C@@H](CC(N)=O)C(=O)N[C@@H](CCCNC(=N)N)C(=O)N[C@H](C(=O)N[C@H](C(=O)N[C@@H](CC(C)C)C(=O)N[C@@H](CCCNC(=N)N)C(=O)N[C@@H](CC(N)=O)C(=O)N[C@@H](CC(C)C)C(=O)NCC(=O)N[C@@H](CC(N)=O)C(=O)NCC(=O)N[C@H](C(=O)N[C@@H](CO)C(=O)N[C@@H](CC(C)C)C(=O)N1CCC[C@H]1C(N)=O)[C@@H](C)O)C(C)C)[C@@H](C)O [II-P336] (Ac-NRTVLRNLGNGTSLP-NH2) | highest
